Where two headings read alike, the source gives them in different places.

The results in this text go back to US20120245180A1, “COMBINATION” (GlaxoSmithKline LLC, priority 2009, published 2012).

Experiment [1] concerns C3A. Briefly: Cell growth inhibition assay, hepatocellular carcinoma cell line (Cell Titer Glo). It is filed as cell-based. Particulars: Homo sapiens, 72 h, 3 days. Here is the method: (§1) Human tumor cell lines from hepatocellular carcinoma (HCC), C3A, Hep3B, HepG2, PLC/PRF/5, SNU182, SNU387, SNU398, SNU423, SNU449 and SNU475 were purchased from the ATCC. Human breast tumor cell lines, HCC2218, HCC1419, BT-474, SK-BR-3, UACC893, JIMT-1, MDA-MB-361, HCC202, MDA-MB-175-VII, HCC1569, HCC1937, HCC38, MDA-MB-157, HCC1954, HCC1500, BT483, KPL-1, SUM225 and ZR-75-1 from ATCC, SUM52 and SUM190 from Asterand, PLC (Detroit Mich.), were cultured in RPMI 1640 medium containing 10% FBS; SKBR3-W13 and BT-474-J4 cultured in RPMI 1640 medium containing 10% FBS and 1 μM lapatinib; KPL4 line was kindly provided by Dr Junichi Kurebayashi (Kawasaki Medical School, Okayama, Japan) and cultured in DMEM containing 5% FBS. JIMT-1 from European Collection of Cell Cultures (UK), is a line derived from a patient clinically resistant to trastuzumab (Herceptin®). SK-BR-3-W13 is a single cell clone isolated by a cloning cylinder after a single treatment of SK-BR-3 cells with 0.5 μM lapatinib. BT-474-J4 is a single cell clone derived from a pool of BT-474 cells that were selected to grow in lapatinib to a concentration of 3 μM.
(§2) Cells were seeded in a 96-well tissue culture plate (NUNC 136102) of RPMI medium containing 10% FBS at 500-2,000 cells per well. Approximately 24 hours after plating, cells were exposed to ten, two-fold or three-fold serial dilutions of either Compound A or B or the combination of the two agents at a 2:1 molar ratio (Compounds A and B respectively). In some cases, cells were grown in RPMI media containing 10% FBS and in the presence or absence of 2 ng/mL hepatocyte growth factor (HGF). Cells were incubated in the presence of compounds for 3 days. ATP levels were determined by adding Cell Titer Glo® (Promega) according to the manufacturer's protocol. Briefly, Cell Titer Glo® was added to each plate, incubated for 20 minutes then luminescent signal was read on the SpectraMax L plate reader with a 0.5 sec integration time. All assays were run at least in duplicate.
(§3) Inhibition of cell growth was estimated after treatment with compound or combination of compounds for three days and comparing the signal to cells treated with vehicle (DMSO). Cell growth was calculated relative to vehicle (DMSO) treated control wells. Concentration of compound that inhibits 50% of control cell growth (IC50) was back-interpolated when y=50% of DMSO treated control wells using nonlinear regression with the equation: […]
(§4) where A is the minimum response (ymin), B is the maximum response (Ymax), C is the inflection point of the curve (EC50) and D is the Hill coefficient.
(§5) Combination effects on potency were evaluated using the Combination Index (CI) and Excess Over Highest Single Agent (EHOSA) methods.
Background: In ATP-based viability assays light output follows the ATP content of the culture.

In experiment [2] the test system is Hep3B. The description is as above. Particulars: Homo sapiens, 72 h, 3 days. It counts as cell-based. Here is the method:
as §1, §2, §3, §4, §5

Experiment [3] has as its system HepG2. The experiment is described as above. The conditions noted are these: Homo sapiens, HepG2, 72 h, 3 days. It counts as cell-based. Here is the method: as §1, §2, §3, §4, §5
Experiment [4] deals with PLC/RF/5. The experiment is described as above. It is filed as cell-based. The conditions noted are these: Homo sapiens, 72 h, 3 days. The protocol:
as §1, §2, §3, §4, §5

For experiment [5], the system named is SNU182. The experiment is described as above. It is filed as cell-based. Particulars: Homo sapiens, SNU-182, 72 h, 3 days. The protocol:
as §1, §2, §3, §4, §5

Experiment [6] has as its system SNU387. The experiment is described as above. It counts as cell-based. The conditions noted are these: Homo sapiens, SNU-387, 72 h, 3 days. Here is the method:
as §1, §2, §3, §4, §5

The subject of experiment [7] is SNU398. Described as above. It counts as cell-based. Particulars: Homo sapiens, SNU-398, 72 h, 3 days. The protocol:
as §1, §2, §3, §4, §5

Experiment [8] relates to SNU423. The description is as above. It counts as cell-based. Particulars: Homo sapiens, SNU-423, 72 h, 3 days. Here is the method:
as §1, §2, §3, §4, §5

The subject of experiment [9] is SNU475. Described as above. It counts as cell-based. The conditions noted are these: Homo sapiens, SNU-475, 72 h, 3 days. The protocol:
as §1, §2, §3, §4, §5

Experiment [10] concerns SNU449. The description is as above. It counts as cell-based, human. The conditions noted are these: 3 days. The protocol:
as §1
(§6) Cells were seeded in a 96-well tissue culture plate (NUNC 136102) of RPMI medium containing 10% FBS at 500-2,000 cells per well. […] ATP levels were determined by adding Cell Titer Glo® (Promega) according to the manufacturer's protocol. Briefly, Cell Titer Glo® was added to each plate, incubated for 20 minutes then luminescent signal was read on the SpectraMax L plate reader with a 0.5 sec integration time. […]
(§7) Inhibition of cell growth was estimated after treatment with compound or combination of compounds for three days and comparing the signal to cells treated with vehicle (DMSO). Cell growth was calculated relative to vehicle (DMSO) treated control wells. […]
as §5

Experiment [11] relates to hepatocellular carcinoma (HCC) cell lines. Briefly: Cell growth inhibition, panel of 10 HCC cell lines. It is filed as cell-based, human. The conditions noted are these: for IC50: Homo sapiens. Here is the method: as §1, §2, §3, §4, §5
The subject of experiment [12] is Human breast tumor cell lines. As to the kind of experiment: Cell growth inhibition, panel of breast tumor cell lines. It is filed as cell-based. The protocol:
Human tumor cell lines from hepatocellular carcinoma (HCC), C3A, Hep3B, HepG2, PLC/PRF/5, SNU182, SNU387, SNU398, SNU423, SNU449 and SNU475 were purchased from the ATCC. […]
as §6, §7, §5
DNA Copy number data on the HER2 gene was collected for all breast cancer cell lines using the Affymetrix 500K chip (Affymetrix Inc, Sunnyvale, Calif.). […] All ‘SNP Chip’ images ('CEL files'), were extracted, read and normalized using the dChip software package (Lin et al. 2004. Bioinformatics. 20:1233-40). […]

Setting [13] is: HGF + (2 ng/ml), read-out: Single agent IC50, Compound B.
[14] abbreviates: HGF −, read-out: Single agent IC50, Compound B.
The mark [15] stands for this setting: HGF + (2 ng/ml), read-out: Single agent IC50, Compound A.
[16] abbreviates: HGF −, read-out: Single agent IC50, Compound A.

For orientation: IC50 means the concentration needed to halve the response being measured. As to `COc1ncc(-c2ccc3nccc(-c4ccnnc4)c3c2)cc1NS(=O)(=O)c1ccc(F)cc1F` [Compound B, 2,4-difluoro-N-{2-(methyloxy)-5-[4-(4-pyridazinyl)-6-quinolinyl]-3-pyridinyl}benzenesulfonamide], the half-maximal inhibitory concentration (IC50) was determined as 13 ± 1 nM in experiment [1] (setting [13]); 13 ± 1 nM in [1] (setting [14]); 57 ± 20 nM in experiment [2] (setting [13]); 28 ± 2 nM in experiment [2] (setting [14]); 9 ± 5 nM in experiment [3] (HepG2, HGF + (2 ng/ml), read-out: Single agent IC50, Compound B); 9 ± 8 nM in experiment [3] (HepG2, HGF −, read-out: Single agent IC50, Compound B). Also, the half-inhibitory concentration (IC50) was 15 ± 1 nM in experiment [4] (PLC/RF/5, HGF + (2 ng/ml), read-out: Single agent IC50, Compound B); 18 ± 12 nM in experiment [4] (PLC/RF/5, HGF −, read-out: Single agent IC50, Compound B); 17 ± 4 nM in experiment [5] (SNU182, HGF + (2 ng/ml), read-out: Single agent IC50, Compound B); 17 ± 1 nM in experiment [5] (SNU182, HGF −, read-out: Single agent IC50, Compound B); 71 ± 10 nM in [6] (SNU387, HGF + (2 ng/ml), read-out: Single agent IC50, Compound B); 103 ± 10 nM in experiment [6] (SNU387, HGF −, read-out: Single agent IC50, Compound B). For the same molecule, the IC50 in experiment [7] (SNU398, HGF + (2 ng/ml), read-out: Single agent IC50, Compound B) stood at 83 ± 2 nM; in experiment [7] (SNU398, HGF −, read-out: Single agent IC50, Compound B), 98 ± 21 nM; in [8] (SNU423, HGF + (2 ng/ml), read-out: Single agent IC50, Compound B) it was 21 ± 7 nM; in experiment [8] (SNU423, HGF −, read-out: Single agent IC50, Compound B) it was 23 ± 16 nM; in experiment [9] (SNU475, HGF + (2 ng/ml), read-out: Single agent IC50, Compound B), 39 ± 17 nM; in experiment [9] (SNU475, HGF −, read-out: Single agent IC50, Compound B), 50 ± 19 nM. The concentration for half-maximal inhibition (IC50) in experiment [10] (Homo sapiens, SNU-449, 72 h, SNU449, HGF −, read-out: Single agent IC50, Compound B) was 24 ± 5 nM; in [11] (all 10 HCC lines), less than 103 nM; in [12] (all lines except HCC1937, SK-Br-3-W13 and MDA-MB-157), less than 100 nM.

`CC(=O)Nc1cccc(-n2c(=O)n(C3CC3)c(=O)c3c(Nc4ccc(I)cc4F)n(C)c(=O)c(C)c32)c1` [Compound A, N-{3-[3-cyclopropyl-5-[(2-fluoro-4-iodophenyl)amino]-6,8-dimethyl-2,4,7-trioxo-3,4,6,7-tetrahydropyrido[4,3-d]pyrimidin-1(2H)-yl]phenyl}acetamide]: the IC50 in experiment [1] (setting [15]) was 36 ± 11 nM; in experiment [1] (setting [16]) it was 10 ± 3 nM; in experiment [2] (setting [15]), 37 ± 8 nM; in experiment [2] (setting [16]), 26 ± 8 nM; in experiment [3] (HepG2, HGF + (2 ng/ml), read-out: Single agent IC50, Compound A) it was 3 ± 1 nM; in [3] (HepG2, HGF −, read-out: Single agent IC50, Compound A), 1 nM. For the same molecule, the IC50 amounted to 2870 ± 1560 nM in experiment [4] (PLC/RF/5, HGF + (2 ng/ml), read-out: Single agent IC50, Compound A); 1600 ± 509 nM in experiment [4] (PLC/RF/5, HGF −, read-out: Single agent IC50, Compound A); 1280 ± 1220 nM in [5] (SNU182, HGF + (2 ng/ml), read-out: Single agent IC50, Compound A); 1760 ± 224 nM in experiment [5] (SNU182, HGF −, read-out: Single agent IC50, Compound A); 94 ± 21 nM in [6] (SNU387, HGF + (2 ng/ml), read-out: Single agent IC50, Compound A); 74 ± 46 nM in [6] (SNU387, HGF −, read-out: Single agent IC50, Compound A). For the same molecule, the IC50 is more than 5000 nM in experiment [7] (SNU398, HGF + (2 ng/ml), read-out: Single agent IC50, Compound A); more than 5000 nM in [7] (SNU398, HGF −, read-out: Single agent IC50, Compound A); 577 ± 569 nM in [8] (SNU423, HGF + (2 ng/ml), read-out: Single agent IC50, Compound A); 218 ± 130 nM in experiment [8] (SNU423, HGF −, read-out: Single agent IC50, Compound A); more than 5000 nM in experiment [9] (SNU475, HGF + (2 ng/ml), read-out: Single agent IC50, Compound A); more than 5000 nM in experiment [9] (SNU475, HGF −, read-out: Single agent IC50, Compound A). Besides, the IC50 was more than 5000 nM in experiment [10] (Homo sapiens, SNU-449, 72 h, SNU449, HGF −, read-out: Single agent IC50, Compound A); more than 5000 nM in experiment [10] (SNU449, HGF + (2 ng/ml), read-out: Single agent IC50, Compound A); 1200 to 2800 nM in experiment [11] (SNU 182 and PLC/PRF/5 epithelial-like cell lines); less than 37 nM in experiment [11] (epithelial-like HCC cell lines HepG2, C3A and Hep3B); 74 to 577 nM in experiment [11] (mesenchymal-like HCC cell lines SNU387 and SNU423); not above 99 nM in [12] (SUM52 and MDA-MB-17511). Besides, the “sensitivity to cell growth inhibition” value in [11] (mesenchymal-like cell lines SNU398, SNU449 and SNU475) is listed as “not sensitive”.
